{
  "source": "paper PMC9855333",
  "about": "“1-(Arylsulfonyl-isoindol-2-yl)piperazines as 5-HT6R Antagonists: Mechanochemical Synthesis, In Vitro Pharmacological Properties and Glioprotective Activity” (Biomolecules, 2022)",
  "key": {"C8-D1A astrocytes [1]": {"test_system": "C8-D1A astrocytes", "assay": "Glioprotection against rotenone-induced cytotoxicity, MTT", "format": "cell-based, mouse", "settings": "compound 0.25 µM, rotenone 0.5 µM, 24 h", "experimental": "(§1) Mouse astrocytes (C8-D1A cell line, ATCC) were cultured in DMEM (Dulbecco’s Modified Eagle’s Medium) supplemented with 10% FBS (FBS; Gibco, Life Technologies, Carlsbad, CA, USA) and 1% antibiotic mixture (Gibco, Life Technologies, Carlsbad, CA, USA) at standard condition until the cells reached 80–90% confluence. Cells were harvested and seeded in 96-well plates at a density of 5000 cells/well. All experiments were conducted with a reduced amount of serum equal to 2.5%. The optimal amount of serum was determined experimentally on the basis of preliminary studies. […] Then 6-OHDA (20 µM) or rotenone (0.5 µM) were added and co-incubated for the next 24 h. The ability of tested compounds to prevent 6-OHDA-induced or rotenone-induced cytotoxicity was assessed by MTT assay following the protocol described above. The experiments were run three times in triplicates.\n(§2) Considering the pivotal physiological role of astrocytes in contrasting oxidative stress and promoting tissue repair, supporting their neuroprotective function might be regarded as a tangible strategy to improve the current therapeutic needs in the treatment of neurodegenerative disorders. […] For this purpose, cells were co-incubated with the evaluated compounds (at the non-toxic concentration of 0.25 µM) and 6-OHDA or ROT (20 and 0.5 µM, respectively). After 24 h of incubation, the viability of astrocytes was determined using the MTT assay."}, "C8-D1A astrocytes [2]": {"test_system": "C8-D1A astrocytes", "assay": "Glioprotection against 6-OHDA-induced cytotoxicity, MTT", "format": "cell-based, mouse", "settings": "compound 0.25 µM, 6-OHDA 20 µM, 24 h", "experimental": "as §1, §2"}},
  "data": [
    {"molecule": "O=S(=O)(c1cccc(N2CCNCC2)c1)N1Cc2cccc(Br)c2C1", "note": "[3g, 4-Bromo-2-{[3-(piperazin-1-yl)phenyl]sulfonyl}isoindoline]", "values": [
      {"measurement": "effect on ROT-induced cytotoxicity", "setting": "C8-D1A astrocytes [1]", "result": "decreased the cytotoxicity"},
      {"measurement": "effect on 6-OHDA-induced cytotoxicity", "setting": "C8-D1A astrocytes [2]", "result": "decreased the cytotoxicity"}
    ]}
  ]
}
